The values that follow come from US5481021A, “Phenyl amidines derivatives useful as platelet aggregation inhibitors” (G. D. Searle & Co., priority 1994, dated 1996).

The target in test [1] is T1, fibrinogen binding to platelets (gpIIb/IIIa) (Homo sapiens, UniProt P05106+P08514).
T1 construct: endogenous in cells
The test is described as follows: Fibrinogen Binding Assay (125I-fibrinogen binding to ADP-activated platelets). The conditions noted are these: ADP 10 μM, 125I-fibrinogen 0.3 μM, 40 min at 37° C., read-out: Human Fg binding IC50. Here is the method:
Fibrinogen binding was performed essentially as described by Plow et al., Blood 70, 110-115 (1987). Briefly, blood from humans who had not been given any antiplatelet drugs in the previous two weeks was collected into 1/10th volume of CCD buffer (100 mM sodium citrates, 136 mM glucose, pH 6.5). The blood was centrifuged for 3 min at 1000×g and platelet rich plasma was transferred to a plastic tube with a plastic pipet and placed on ice. After 15 minutes, 1/2 volume of ice cold CCD buffer was added and the sample was centrifuged at 900×g for 10 min at 2° C. The supernatant was decanted and the platelet pellet was gently resuspended in 1/2 the original volume of ice cold modified Tyrode's buffer (137 mM NaCl, 2.6 mM KCl, 12 mM NaHCO3, 5.5 mM glucose, 15 mM HEPES, 0.5% BSA, pH 7.4). After incubating for 30 minutes at 37° C., the platelet count was adjusted to 4×10^8 platelets/ml with modified Tyrode's buffer. To test samples (final concentration=1×10^8 platelets/ml) were added in sequence: ADP (10 μM), CaCl2 (2 mM), test compound, and ^125 I-fibrinogen (0.3 μM) to the aforesaid final concentrations in a volume of 200 μl. The samples were incubated for 40 min at 37° C. and 50 μl aliquots were centrifuged at 8,000×g through a 20% sucrose solution (400 μl). The tubes were quick frozen and the tips containing the platelet pellet were cut and assayed for bound ^125 I-fibrinogen by gamma scintillation counting. Specific binding was determined in each test by subtracting from the total binding the amount of ^125 I-fibrinogen bound in the presence of a 60-fold excess of unlabeled fibrinogen.

Test [2] relates to Platelet aggregation in dog PRP. The experiment in a line: In-Vitro Platelet Aggregation in PRP (ADP induced). The conditions noted are these: Canis lupus familiaris; for IC50: ADP 50 μm, 37° C.; for inhibition at 10 µM: ADP, test concentration 1 × 10^-5. The format is cell-based. Here is the method:
In-Vitro Platelet Aggregation in PRP
(§1) Healthy male or female dogs were fasted for 8 hours prior to drawing blood; then 30 ml whole blood was collected using a butterfly needle and 30 cc plastic syringe with 3 ml of 0.129M buffered sodium citrate (3.8%). The syringe was rotated carefully as blood was drawn to mix the citrate. Platelet-rich plasma (PRP) was prepared by centrifugation at 975×g for 3.17 minutes at room temperature, allowing the centrifuge to coast to a stop without braking. The PRP was removed from the blood with a plastic pipette and placed in a plastic capped, 50 ml Corning conical sterile centrifuge tube which was held at room temperature. Platelet poor plasma (PPP) was prepared by centrifuging the remaining blood at 2000×g for 15 minutes at room temperature allowing the centrifuge to coast to a stop without braking. The PRP was adjusted with PPP to a count of 2-3×10^8 platelets per ml. 400 for 5-(p-cyanophenyl)pentanoic acid in Section C of Example 1.
as §1, with “400 μl of the PRP preparation and 50 μl of the compound to be tested or saline were preincubated” for “400”, “1 minute at 37° C.” for “5-(p-cyanophenyl)pentanoic acid”, “a BioData aggregometer (BioData, Horsham, Pa.). 50 μl” for “Section C”, “adenosine 5'diphosphate (ADP) (50 μm final concentration) was added to the cuvettes and the aggregation was monitored for 1 minute. All compounds are tested in duplicate. Results are calculated as follows:” for “Example 1.”
Percent of control=[(maximal OD minus initial OD of compound) divided by
(maximal OD minus initial OD of control saline)]×100. The %
inhibition=100-(percent of control).

For test [3], the system named is ex vivo collagen induced platelet aggregation. The test is described as follows: Inhibition of ex vivo collagen induced aggregation. It counts as in vivo, dog (Beagle). The settings on record: dog, IV. Here is the method:
INHIBITION OF EX VIVO COLLAGEN INDUCED AGGREGATION BY COMPOUNDS OF THE INVENTION
PURPOSE--The purpose of this assay is to determine the effects of antiplatelet compounds on ex vivo collagen induced platelet aggregation when administered either intravenously or orally to dogs.
Pretreatment (control) blood samples are drawn from either conscious or anesthetized dogs (Beagles) and centrifuged to prepare platelet rich plasma (PRP). Aggregatory response to collagen is measured in an aggregometer and used as Control. Compounds are administered, either intragasterically (either by capsule or stomach tube or intravenously. Blood samples are drawn at predetermined intervals after compound administration, PRP prepared and aggregation to collagen determined. Compound inhibition of aggregation is determined by comparing the aggregation response after compound administration to the pretreatment response. The study is continued for a maximum of 24 hours or until the platelet aggregation returns to control levels. (If aggregation is still inhibited after 7 hours, a blood sample is drawn the following morning and tested.) Duration of activity is determined by the length of time platelet aggregation is inhibited after compound administration.

Test [4] can be described thus: Canine intravenous infusion model. It counts as in vivo.

A word on the IC50: it is the concentration needed to halve the response being measured. By inhibition is commonly meant the drop in the measured response relative to a control, in per cent. The low end stands for little suppression, the high end for strong suppression. Usually ED50 stands for the dose that gives a 50% effect, or the effect in half of the subjects.

Structures can show the parent of a compound that is named as a salt.

T1 sequence (P08514 32-887 limits assumed): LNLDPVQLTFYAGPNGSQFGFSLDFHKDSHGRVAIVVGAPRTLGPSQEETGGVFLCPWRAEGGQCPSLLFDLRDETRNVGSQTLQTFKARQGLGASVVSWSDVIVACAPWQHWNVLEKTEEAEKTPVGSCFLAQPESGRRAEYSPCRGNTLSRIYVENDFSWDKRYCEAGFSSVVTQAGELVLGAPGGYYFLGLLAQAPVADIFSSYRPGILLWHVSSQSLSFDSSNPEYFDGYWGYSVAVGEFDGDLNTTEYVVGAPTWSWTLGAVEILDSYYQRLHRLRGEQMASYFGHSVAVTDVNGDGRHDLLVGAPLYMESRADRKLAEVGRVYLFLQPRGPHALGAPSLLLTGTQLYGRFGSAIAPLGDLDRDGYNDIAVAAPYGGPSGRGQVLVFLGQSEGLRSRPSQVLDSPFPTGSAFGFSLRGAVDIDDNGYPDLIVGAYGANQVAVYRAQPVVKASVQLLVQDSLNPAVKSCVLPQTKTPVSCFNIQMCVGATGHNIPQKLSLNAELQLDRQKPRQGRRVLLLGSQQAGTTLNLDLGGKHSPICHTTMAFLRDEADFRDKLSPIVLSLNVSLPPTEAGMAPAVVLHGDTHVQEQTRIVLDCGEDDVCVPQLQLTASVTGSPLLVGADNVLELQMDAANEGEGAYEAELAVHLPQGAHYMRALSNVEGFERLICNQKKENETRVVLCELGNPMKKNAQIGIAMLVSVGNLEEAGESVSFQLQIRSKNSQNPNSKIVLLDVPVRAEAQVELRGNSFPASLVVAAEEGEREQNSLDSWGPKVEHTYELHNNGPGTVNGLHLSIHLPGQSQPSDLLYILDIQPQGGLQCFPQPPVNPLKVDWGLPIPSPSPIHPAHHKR
T1 sequence (P08514 891-1039 partner limits assumed): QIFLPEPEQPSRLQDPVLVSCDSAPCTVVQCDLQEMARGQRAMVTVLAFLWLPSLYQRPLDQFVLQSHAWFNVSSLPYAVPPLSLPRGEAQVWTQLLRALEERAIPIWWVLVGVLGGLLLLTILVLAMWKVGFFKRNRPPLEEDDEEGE
T1 sequence (P05106 27-788): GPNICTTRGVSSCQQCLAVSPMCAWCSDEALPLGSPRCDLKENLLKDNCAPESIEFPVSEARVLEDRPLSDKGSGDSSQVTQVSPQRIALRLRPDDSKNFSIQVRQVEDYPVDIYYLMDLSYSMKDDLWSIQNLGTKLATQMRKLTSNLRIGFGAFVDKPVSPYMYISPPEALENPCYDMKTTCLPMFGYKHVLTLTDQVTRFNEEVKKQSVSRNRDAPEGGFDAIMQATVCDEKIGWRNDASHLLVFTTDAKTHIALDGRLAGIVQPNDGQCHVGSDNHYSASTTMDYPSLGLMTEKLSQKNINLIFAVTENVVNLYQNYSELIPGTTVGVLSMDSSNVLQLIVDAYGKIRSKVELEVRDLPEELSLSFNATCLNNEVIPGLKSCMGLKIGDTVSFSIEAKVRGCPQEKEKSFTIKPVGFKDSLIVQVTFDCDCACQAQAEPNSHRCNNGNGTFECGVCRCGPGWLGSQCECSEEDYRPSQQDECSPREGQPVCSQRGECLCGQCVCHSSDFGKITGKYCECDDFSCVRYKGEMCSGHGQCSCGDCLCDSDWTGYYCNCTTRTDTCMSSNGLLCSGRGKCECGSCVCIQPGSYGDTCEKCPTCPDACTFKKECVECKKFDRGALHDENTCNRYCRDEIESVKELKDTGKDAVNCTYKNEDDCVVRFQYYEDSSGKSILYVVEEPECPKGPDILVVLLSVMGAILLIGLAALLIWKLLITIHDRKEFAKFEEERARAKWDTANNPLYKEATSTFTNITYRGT

Take `N=C(N)c1ccc(CCCCC(=O)N[C@@H](CC(=O)O)C(=O)NCCc2ccccc2)cc1` [3 S-[[5-[4-(aminoiminomethyl)phenyl]-1-oxopentyl]amino]-4-oxo-4-[(2-phenylethyl)amino]butanoic acid]: the IC50 in test [1] stood at 200 nM. In test [2], this compound gave an IC50 of 1900 nM and an inhibition at 10 µM of 100%.

Consider `N=C(N)c1ccc(C#CCCC(=O)N[C@@H](CC(=O)O)C(=O)N[C@@H](Cc2ccccc2)C(=O)O)cc1` [N-[5-[4-(aminoiminomethyl)phenyl]-1-oxo-4-pentynyl]-N-L-α-aspartyl-L-phenylalanine], for which the half-inhibitory concentration (IC50) in test [1] was 6 nM; in test [2] it was 90 nM. The same compound displayed an inhibition at 10 µM in test [2] of 100%. Further, the “Ex-vivo collagen induced aggregation, Max % Inhibition” value turned out to be 29% in test [3] (0.005 mg/kg), 83% in test [3] (0.01 mg/kg) and 100% in test [3] (0.1 mg/kg).

With `N=C(N)c1ccc(/C=C/CCC(=O)N[C@@H](CC(=O)O)C(=O)N[C@@H](Cc2ccccc2)C(=O)O)cc1` [N-[5-[4-(aminoiminomethyl)phenyl]-1-oxo-4E-pentenyl]-N-L-α-aspartyl-L-phenylalanine], in test [1], the IC50 is 7 nM. In test [2], this compound showed an IC50 of 82 nM and an inhibition at 10 µM of 100%.

In turn, `N=C(N)c1ccc(CCCCC(=O)N[C@@H](CC(=O)O)C(=O)N[C@@H](Cc2ccccc2)C(=O)O)cc1` [N-[N-[5-[4-(aminoiminomethyl)phenyl]-1-oxopentyl]-L-α-aspartyl]-L-phenylalanine] displayed an ED50 in test [4] of 0.32 µg/kg/min.

With `N=C(N)c1ccc(CCCCC(=O)N[C@@H](CC(=O)O)C(=O)N[C@@H](Cc2ccccc2)C(=O)O)cc1` [N-[N-[5-[4-aminoiminomethyl)phenyl-1-oxopentyl]-L-α-aspartyl]-L-phenylalanine, acetate salt], the IC50 in test [1] is 8.3 nM; in test [2], 53 nM. In test [2], this compound yielded an inhibition at 10 µM of 100%. Further, the entries for the “Ex-vivo collagen induced aggregation, Max % Inhibition” value in test [3] (0.003 mg/kg) and in test [3] (0.006 mg/kg) were 31% and 84%, respectively.

Turning to `N=C(N)c1cccc(/C=C\CCCC(=O)N[C@@H](CC(=O)O)C(=O)N[C@@H](Cc2ccccc2)C(=O)O)c1` [N-[N-[6-[3-(aminoiminomethyl)phenyl]-1-oxo-5Z-hexenyl]-L-α-aspartyl]-L-phenylalanine], in test [1], the IC50 amounted to 600 nM. In test [2], this compound showed an IC50 of 4300 nM and an inhibition at 10 µM of 100%.
